# Reference: patent publication US20190374533A1, “COMPOUNDS AND METHODS FOR INHIBITING NHE-MEDIATED ANTIPORT IN THE TREATMENT OF DISORDERS ASSOCIATED WITH FLUID RETENTION OR SALT OVERLOAD AND GASTROINTESTINAL TRACT DISORDERS” (Ardelyx, Inc., priority 2008, published 2019)
# Where a name gives a salt, the structure may show the parent alone.
# Tested on: absorption of sodium from the intestinal lumen
# Assay: Inhibition of intestinal sodium absorption in rats
# Type: in vivo, rat
# Details: Sprague Dawley rats, 0.1 mg/kg oral gavage, 13-hours post-dose
# Procedure: Urinary sodium excretion and fecal form were measured to assess the ability of selected example compounds to inhibit the absorption of sodium from the intestinal lumen. Eight-week old, male, Sprague Dawley rats were purchased from Envigo (Livermore, Calif.), were housed 2 per cage and acclimated for at least 48 hours before study initiation. Animals were fed Harlan Teklad Global TD.160470 rodent chow (Maddison, Wis.), standard laboratory rodent chow Harlan Teklad Global 2018 with the addition of 0.4% inorganic phosphorous. […] At 13-hours post-dose, urine samples were collected and fecal form was assessed. In addition, the weight of food consumed over the 13-hour period was measured and recorded. Fecal forms were scored according to a common scale associated with increasing fecal water to the wettest observation in the cage's collection funnel (1, normal pellet; 2, pellet adhering to sides of collection funnel due to moisture; 3, loss of normal pellet shape: 4, complete loss of shape with a blotting pattern; 5, liquid fecal streams evident). Fecal form score (FFS) was calculated for each group as the median of each individual rat's FFS within the group and reported in Table 12. Fecal samples were dried using a lyophilizer for at least 3 days, following which dry weight was recorded and fecal fluid content was calculated based on the difference between the wet and dry stool weights. […]
smiles,measurement,setting,value
"CN1Cc2c(Cl)cc(Cl)cc2[C@H](c2cccc(S(=O)(=O)NCCOCCOCCNC(=O)Nc3ccc(NC(=O)NCCOCCOCCNS(=O)(=O)c4cccc([C@@H]5CN(C)Cc6c(Cl)cc(Cl)cc65)c4)cc3)c2)C1 (single isomer, unassigned) [Example 203, (S or R)—N,N′-(2,2′-(2,2′-(2,2′-(1,4-phenylenebis(azanediyl))bis(oxomethylene)bis(azanediyl)bis(ethane-2,1-diyl))bis(oxy)bis(ethane-2,1-diyl))bis(oxy)bis(ethane-2,1-diyl))bis(3-((S or R)-6,8-dichloro-2-methyl-1,2,3,4-tetrahydroisoquinolin-4-yl)benzenesulfonamide) bis-hydrochloride salt]","Urinary Na (% of Vehicle, out/in)",normalized to dietary sodium intake,C (<40%)
same,FFS (1-5),"fecal form score, group median",3
